ChEMBL document CHEMBL3885881, “DrugMatrix”

Organism: Rattus norvegicus
Test: DrugMatrix - Regimen: Daily Repeat
Type: toxicity, organism-based, Sprague-Dawley
Design: regimen Daily Repeat, gender Male, age 6-8 weeks
Conditions: in vivo, po, 60 mg/kg, route oral GAVAGE, dose level Low, vehicle 100 % WATER; for ABSOLUTE BASOPHIL / ABSOLUTE EOSINOPHIL / ABSOLUTE LYMPHOCYTE / ABSOLUTE MONOCYTE / ABSOLUTE SEGMENTED NEUTROPHIL / BASOPHIL / EOSINOPHIL / ERYTHROCYTE COUNT / HEMATOCRIT / HEMOGLOBIN / LEUKOCYTE COUNT / LYMPHOCYTE / MEAN CORPUSCULAR HEMOGLOBIN / MEAN CORPUSCULAR HEMOGLOBIN CONCENTRATION / MEAN CORPUSCULAR VOLUME / MONOCYTE / NEUTROPHIL / NUCLEATED RED BLOOD CELLS / PLATELET COUNT: tissue Blood; for ALANINE AMINOTRANSFERASE / ALBUMIN / ALKALINE PHOSPHATASE / ASPARTATE AMINOTRANSFERASE / BLOOD UREA NITROGEN / CARBON DIOXIDE / CHLORIDE / CHOLESTEROL / CREATINE PHOSPHOKINASE / CREATININE / GLUCOSE / LACTATE DEHYDROGENASE / LIPASE / PHOSPHORUS / POTASSIUM / SODIUM / TOTAL BILIRUBIN / TOTAL PROTEIN / URIC ACID: tissue Plasma

Question: What does the source list for `CC(CCc1ccccc1)NCC(O)c1ccc(O)c(C(N)=O)c1` (stereo unspecified) [LABETALOL]?
Answer: ABSOLUTE BASOPHIL (72 h, time 3 day): 0 CELLS/uL; ABSOLUTE EOSINOPHIL (72 h, time 3 day): 201.33 CELLS/uL; ABSOLUTE LYMPHOCYTE (72 h, time 3 day): 14909.33 CELLS/uL; ABSOLUTE MONOCYTE (72 h, time 3 day): 67 CELLS/uL; ABSOLUTE SEGMENTED NEUTROPHIL (72 h, time 3 day): 1589 CELLS/uL; BASOPHIL (72 h, time 3 day): 0%; EOSINOPHIL (72 h, time 3 day): 1.33%; ERYTHROCYTE COUNT (72 h, time 3 day): 5.26 x10E6/uL; HEMATOCRIT (72 h, time 3 day): 33.47%; HEMOGLOBIN (72 h, time 3 day): 13 G/DL; LEUKOCYTE COUNT (72 h, time 3 day): 16.77 x10E3/uL; LYMPHOCYTE (72 h, time 3 day): 89.33%; MEAN CORPUSCULAR HEMOGLOBIN (72 h, time 3 day): 24.77 pg; MEAN CORPUSCULAR HEMOGLOBIN CONCENTRATION (72 h, time 3 day): 38.9 G/DL; MEAN CORPUSCULAR VOLUME (72 h, time 3 day): 63.63 fL; MONOCYTE (72 h, time 3 day): 0.33%; NEUTROPHIL (72 h, time 3 day): 9%; NUCLEATED RED BLOOD CELLS (72 h, time 3 day): 0 /100WBC; PLATELET COUNT (72 h, time 3 day): 1299.67 x10E3/uL; ALANINE AMINOTRANSFERASE (72 h, time 3 day): 51.67 u/L; ALBUMIN (72 h, time 3 day): 4.23 G/DL; ALKALINE PHOSPHATASE (72 h, time 3 day): 301.67 u/L; ASPARTATE AMINOTRANSFERASE (72 h, time 3 day): 83.67 u/L; BLOOD UREA NITROGEN (72 h, time 3 day): 14.33 mg/dL; CARBON DIOXIDE (72 h, time 3 day): 31.67 mmol/L; CHLORIDE (72 h, time 3 day): 98.67 MEQ/L; CHOLESTEROL (72 h, time 3 day): 81.33 mg/dL; CREATINE PHOSPHOKINASE (72 h, time 3 day): 278 u/L; CREATININE (72 h, time 3 day): 0.27 mg/dL; GLUCOSE (72 h, time 3 day): 142.33 mg/dL; LACTATE DEHYDROGENASE (72 h, time 3 day): 160 u/L; LIPASE (72 h, time 3 day): 9.33 u/L; PHOSPHORUS (72 h, time 3 day): 12.9 mg/dL; POTASSIUM (72 h, time 3 day): 6.47 MEQ/L; SODIUM (72 h, time 3 day): 145.3 MEQ/L; TOTAL BILIRUBIN (72 h, time 3 day): 0.2 mg/dL; TOTAL PROTEIN (72 h, time 3 day): 5.97 G/DL; URIC ACID (72 h, time 3 day): 1.7 mg/dL; ABSOLUTE BASOPHIL (120 h, time 5 day): 0 CELLS/uL; ABSOLUTE EOSINOPHIL (120 h, time 5 day): 0 CELLS/uL; ABSOLUTE LYMPHOCYTE (120 h, time 5 day): 14854.33 CELLS/uL; ABSOLUTE MONOCYTE (120 h, time 5 day): 209.33 CELLS/uL; ABSOLUTE SEGMENTED NEUTROPHIL (120 h, time 5 day): 1369.67 CELLS/uL; BASOPHIL (120 h, time 5 day): 0%; EOSINOPHIL (120 h, time 5 day): 0%; ERYTHROCYTE COUNT (120 h, time 5 day): 5.65 x10E6/uL; HEMATOCRIT (120 h, time 5 day): 34.93%; HEMOGLOBIN (120 h, time 5 day): 13.63 G/DL; LEUKOCYTE COUNT (120 h, time 5 day): 16.43 x10E3/uL; LYMPHOCYTE (120 h, time 5 day): 90.33%; MEAN CORPUSCULAR HEMOGLOBIN (120 h, time 5 day): 24.17 pg; MEAN CORPUSCULAR HEMOGLOBIN CONCENTRATION (120 h, time 5 day): 39.03 G/DL; MEAN CORPUSCULAR VOLUME (120 h, time 5 day): 61.87 fL; MONOCYTE (120 h, time 5 day): 1.33%; NEUTROPHIL (120 h, time 5 day): 8.33%; NUCLEATED RED BLOOD CELLS (120 h, time 5 day): 0 /100WBC; PLATELET COUNT (120 h, time 5 day): 1103 x10E3/uL; ALANINE AMINOTRANSFERASE (120 h, time 5 day): 59 u/L; ALBUMIN (120 h, time 5 day): 4.03 G/DL; ALKALINE PHOSPHATASE (120 h, time 5 day): 331.33 u/L; ASPARTATE AMINOTRANSFERASE (120 h, time 5 day): 90.67 u/L; BLOOD UREA NITROGEN (120 h, time 5 day): 16.67 mg/dL; CARBON DIOXIDE (120 h, time 5 day): 27.33 mmol/L; CHLORIDE (120 h, time 5 day): 100.67 MEQ/L; CHOLESTEROL (120 h, time 5 day): 96.67 mg/dL; CREATINE PHOSPHOKINASE (120 h, time 5 day): 354.33 u/L; CREATININE (120 h, time 5 day): 0.23 mg/dL; GLUCOSE (120 h, time 5 day): 144 mg/dL; LACTATE DEHYDROGENASE (120 h, time 5 day): 305.33 u/L; LIPASE (120 h, time 5 day): 9.33 u/L; PHOSPHORUS (120 h, time 5 day): 12.57 mg/dL; POTASSIUM (120 h, time 5 day): 6.21 MEQ/L; SODIUM (120 h, time 5 day): 143.47 MEQ/L; TOTAL BILIRUBIN (120 h, time 5 day): 0.23 mg/dL; TOTAL PROTEIN (120 h, time 5 day): 5.93 G/DL; URIC ACID (120 h, time 5 day): 1.53 mg/dL
